Assays:
Type in all cases: in vivo
Setaria viridis = assay: Greenhouse pre-emergence (PRE) herbicidal test on SETVI; conditions: PRE
In short: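 PRE spray directly after sowing, fine nozzles; actives suspended/emulsified in water, components formulated as 5% w/w EC in spray liquor. Substrate loamy sand ~3.0% humus. Hooded until rooting; 10-25° C. / 20-35° C. per species. Score 0–100, 20 DAT.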

Echinochloa crus-galli [1] = assay: Greenhouse post-emergence (POST) herbicidal test on ECHCG; conditions: POST; for % activity: ECHCG, 18 DAT
In short: (§1)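 Greenhouse weeds, raised in pots of humus-containing loamy sand, receive a water-based spray of the actives once 3 to 15 cm tall. Damage is rated visually from 0 (none) to 100 (above-ground parts destroyed) 20 days after treatment.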

Abutilon theophrasti [2] = assay: Greenhouse pre-emergence (PRE) herbicidal test on ABUTH; conditions: PRE; for % activity / % activity solo application: ABUTH; for % activity: 18 DAT
In short: (§2)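 Each species is sown separately into loamy sand containing roughly 3.0% humus and treated before emergence. Pots are watered and covered until roots establish, then held at 10-25° C or 20-35° C. Injury is rated on a 0 to 100 scale 20 days post-treatment.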

Lolium multiflorum = assay: Greenhouse pre-emergence (PRE) herbicidal test on LOLMU; conditions: PRE; for % activity: 18 DAT
In short: as §2

Alopecurus myosuroides = assay: Greenhouse pre-emergence (PRE) herbicidal test on ALOMY; conditions: PRE, ALOMY; for % activity: 18 DAT; for % activity solo application: 20 DAT
In short: as §2

Geranium pusillum = assay: Greenhouse post-emergence (POST) herbicidal test on GERPU; conditions: POST, GERPU, 18 DAT
In short: as §1

Commelina benghalensis = assay: Greenhouse pre-emergence (PRE) herbicidal test on COMBE; conditions: PRE; for % activity / % activity solo application: COMBE; for % activity: 18 DAT
In short: as §2

Euphorbia heterophylla [3] = assay: Greenhouse post-emergence (POST) herbicidal test on EPHHL; conditions: POST
In short: as §1

Abutilon theophrasti [4] = assay: Greenhouse post-emergence (POST) herbicidal test on ABUTH; conditions: POST, ABUTH; for % activity: 18 DAT
In short: as §1

Amaranthus retroflexus [5] = assay: Greenhouse post-emergence (POST) herbicidal test on AMARE; conditions: POST, AMARE, Indaziflam solo 1 gai/ha, 18 DAT
In short: as §1

Euphorbia heterophylla [6] = assay: Greenhouse pre-emergence (PRE) herbicidal test on EPHHL; conditions: PRE; for % activity / % activity solo application: EPHHL; for % activity: 18 DAT
In short: as §2

Digitaria sanguinalis = assay: Greenhouse post-emergence (POST) herbicidal test on DIGSA; conditions: POST; for % activity / % activity solo application: DIGSA; for % activity: 18 DAT
In short: as §1

Amaranthus retroflexus [7] = assay: Greenhouse pre-emergence (PRE) herbicidal test on AMARE; conditions: PRE; for % activity / % activity solo application: AMARE; for % activity: 18 DAT
Description: The culture containers used were plastic pots containing loamy sand with approximately 3.0% of humus as substrate. The seeds of the test plants were sown separately for each species.
The containers were irrigated gently to promote germination and growth and subsequently covered with transparent plastic hoods until the plants had rooted.
Depending on the species, the plants were kept at 10-25° C. and 20-35° C., respectively.
The test period extended over 2 to 4 weeks. During this time, the plants were tended and their response to the individual treatments was evaluated.
Evaluation was carried out using a scale from 0 to 100. 100 means no emergence of the plants, or complete destruction of at least the above-ground parts, and 0 means no damage or normal course of growth. A good herbicidal activity is given at values of at least 70, and very good herbicidal activity is given at values of at least 85.
As indicated application was either post emergent (POST) at the respective growth stage (GS) of the weed (BBCH code), or pre-emergent (PRE). […]

Echinochloa crus-galli [8] = assay: Greenhouse pre-emergence (PRE) herbicidal test on ECHCG; conditions: PRE; for % activity / % activity solo application: ECHCG; for % activity: 18 DAT
Ambrosia artemisiifolia = assay: Greenhouse pre-emergence (PRE) herbicidal test on AMBEL; conditions: PRE, 20 DAT; for % activity solo application: AMBEL

Structure (SMILES): Cc1ccc2c(c1)[C@H](Nc1nc(N)nc(C(C)F)n1)[C@@H](C)C2 (stereo partly shown) [Indaziflam, indaziflam]
- % activity (Setaria viridis; SETVI, Indaziflam solo 1 gai/ha, 18 DAT): 40%
- % activity (Echinochloa crus-galli [1]; Indaziflam solo 1 gai/ha): 0%
- % activity (Echinochloa crus-galli [1]; Indaziflam solo 2 gai/ha): 0%
- % activity (Echinochloa crus-galli [1]; Indaziflam solo 4 gai/ha): 20%
- % activity (Echinochloa crus-galli [1]; Indaziflam solo 8 gai/ha): 60%
- % activity (Abutilon theophrasti [2]; Indaziflam solo 1 gai/ha): 0%
- % activity (Abutilon theophrasti [2]; Indaziflam solo 4 gai/ha): 25%
- % activity (Lolium multiflorum; LOLMU, Indaziflam solo 1 gai/ha): 10%
- % activity (Lolium multiflorum; LOLMU, Indaziflam solo 2 gai/ha): 10%
- % activity (Lolium multiflorum; LOLMU, Indaziflam solo 4 gai/ha): 40%
- % activity (Alopecurus myosuroides; Indaziflam solo 1 gai/ha): 10%
- % activity (Alopecurus myosuroides; Indaziflam solo 4 gai/ha): 75%
- % activity (Geranium pusillum; Indaziflam solo 4 gai/ha): 50%
- % activity (Geranium pusillum; Indaziflam solo 8 gai/ha): 50%
- % activity (Commelina benghalensis; Indaziflam solo 1 gai/ha): 20%
- % activity (Commelina benghalensis; Indaziflam solo 2 gai/ha): 10%
- % activity (Commelina benghalensis; Indaziflam solo 8 gai/ha): 40%
- % activity (Euphorbia heterophylla [3]; EPHHL, Indaziflam solo 4 gai/ha, 18 DAT): 40%
- % activity (Abutilon theophrasti [4]; Indaziflam solo 2 gai/ha): 15%
- % activity (Abutilon theophrasti [4]; Indaziflam solo 4 gai/ha): 30%
- % activity (Amaranthus retroflexus [5]): 65%
- % activity (Euphorbia heterophylla [6]; Indaziflam solo 1 gai/ha): 10%
- % activity (Euphorbia heterophylla [6]; Indaziflam solo 4 gai/ha): 5%
- % activity (Digitaria sanguinalis; Indaziflam solo 1 gai/ha): 0%
- % activity (Digitaria sanguinalis; Indaziflam solo 2 gai/ha): 5%
- % activity (Digitaria sanguinalis; Indaziflam solo 8 gai/ha): 20%
- % activity (Amaranthus retroflexus [7]; Indaziflam solo 1 gai/ha): 10%
- % activity (Amaranthus retroflexus [7]; Indaziflam solo 4 gai/ha): 50%
- % activity (Echinochloa crus-galli [8]; Indaziflam solo 1 gai/ha): 30%
- % activity (Echinochloa crus-galli [8]; Indaziflam solo 4 gai/ha): 85%
- % activity (Echinochloa crus-galli [8]; Indaziflam solo 8 gai/ha): 80%

Structure (SMILES): COCc1cnc(C2=NC(C)(C(C)C)C(=O)N2)c(C(=O)O)c1 (stereo not shown) [Imazamox, imazamox]
- pest or weed control at 2 g/ha (Setaria viridis; Setaria viridis, pre-emergence, 480 h, 2 gai/ha, 20 DAT): 5%
- pest or weed control at 2 g/ha (Echinochloa crus-galli [1]; Echinochloa crus-galli, post-emergence, 480 h, 2 gai/ha, 20 DAT): 55%
- pest or weed control at 1 g/ha (Abutilon theophrasti [2]; Abutilon theophrasti, pre-emergence, 480 h, 1 gai/ha, 20 DAT): 10%
- pest or weed control at 1 g/ha (Ambrosia artemisiifolia; Ambrosia artemisiifolia, pre-emergence, 480 h, 1 gai/ha): 0%
- pest or weed control at 2 g/ha (Ambrosia artemisiifolia; Ambrosia artemisiifolia, pre-emergence, 480 h, 2 gai/ha, read-out: % activity): 0%
- pest or weed control at 1 g/ha (Lolium multiflorum; Lolium multiflorum, pre-emergence, 480 h, 1 gai/ha, 20 DAT): 0%
- pest or weed control at 1 g/ha (Commelina benghalensis; Commelina benghalensis, pre-emergence, 480 h, 1 gai/ha, 20 DAT): 0%
- pest or weed control at 2 g/ha (Commelina benghalensis; Commelina benghalensis, pre-emergence, 480 h, 2 gai/ha, 20 DAT, read-out: % activity): 0%
- pest or weed control at 1 g/ha (Euphorbia heterophylla [3]; Euphorbia heterophylla, post-emergence, 480 h, 1 gai/ha, 20 DAT): 10%
- pest or weed control at 2 g/ha (Euphorbia heterophylla [3]; Euphorbia heterophylla, post-emergence, 480 h, 2 gai/ha, 20 DAT): 10%
- pest or weed control at 1 g/ha (Euphorbia heterophylla [6]; Euphorbia heterophylla, pre-emergence, 480 h, 1 gai/ha, 20 DAT): 10%
- pest or weed control at 2 g/ha (Euphorbia heterophylla [6]; Euphorbia heterophylla, pre-emergence, 480 h, 2 gai/ha, 20 DAT): 15%
- pest or weed control at 2 g/ha (Digitaria sanguinalis; Digitaria sanguinalis, post-emergence, 480 h, 2 gai/ha, 20 DAT): 55%
- pest or weed control at 2 g/ha (Amaranthus retroflexus [7]; Amaranthus retroflexus, pre-emergence, 480 h, 2 gai/ha, 20 DAT): 25%
- pest or weed control at 1 g/ha (Echinochloa crus-galli [8]; Echinochloa crus-galli, pre-emergence, 480 h, 1 gai/ha, 20 DAT): 0%

Structure (SMILES): FC(F)c1cc(-c2c(Cl)cccc2Oc2ncc(Cl)cn2)on1 [Rimisoxafen, rimisoxafen]
- % activity solo application (Setaria viridis; SETVI, 8 gai/ha, 20 DAT): 35%
- % activity solo application (Setaria viridis; SETVI, 16 gai/ha, 20 DAT): 35%
- % activity solo application (Abutilon theophrasti [2]; 4 gai/ha, 20 DAT): 0%
- % activity solo application (Abutilon theophrasti [2]; 8 gai/ha, 20 DAT): 5%
- % activity solo application (Abutilon theophrasti [2]; 16 gai/ha, 20 DAT): 5%
- % activity solo application (Abutilon theophrasti [2]; 32 gai/ha, 20 DAT): 35%
- % activity solo application (Ambrosia artemisiifolia; 4 gai/ha): 0%
- % activity solo application (Ambrosia artemisiifolia; 8 gai/ha): 0%
- % activity solo application (Ambrosia artemisiifolia; 16 gai/ha): 0%
- % activity solo application (Ambrosia artemisiifolia; 32 gai/ha): 0%
- % activity solo application (Lolium multiflorum; LOLMU, 8 gai/ha, 20 DAT): 0%
- % activity solo application (Alopecurus myosuroides; 4 gai/ha): 0%
- % activity solo application (Alopecurus myosuroides; 8 gai/ha): 0%
- % activity solo application (Alopecurus myosuroides; 16 gai/ha): 0%
- % activity solo application (Alopecurus myosuroides; 32 gai/ha): 0%
- % activity solo application (Commelina benghalensis; 4 gai/ha, 20 DAT): 0%
- % activity solo application (Commelina benghalensis; 8 gai/ha, 20 DAT): 10%
- % activity solo application (Commelina benghalensis; 16 gai/ha, 20 DAT): 0%
- % activity solo application (Commelina benghalensis; 32 gai/ha, 20 DAT): 30%
- % activity solo application (Euphorbia heterophylla [3]; EPHHL, 16 gai/ha, 20 DAT): 15%
- % activity solo application (Abutilon theophrasti [4]; 16 gai/ha, 20 DAT): 80%
- % activity solo application (Euphorbia heterophylla [6]; 8 gai/ha, 20 DAT): 0%
- % activity solo application (Euphorbia heterophylla [6]; 16 gai/ha, 20 DAT): 0%
- % activity solo application (Digitaria sanguinalis; 4 gai/ha, 20 DAT): 5%
- % activity solo application (Digitaria sanguinalis; 8 gai/ha, 20 DAT): 5%
- % activity solo application (Digitaria sanguinalis; 16 gai/ha, 20 DAT): 10%
- % activity solo application (Digitaria sanguinalis; 32 gai/ha, 20 DAT): 20%
- % activity solo application (Amaranthus retroflexus [7]; 8 gai/ha, 20 DAT): 25%
- % activity solo application (Amaranthus retroflexus [7]; 16 gai/ha, 20 DAT): 75%
- % activity solo application (Echinochloa crus-galli [8]; 4 gai/ha, 20 DAT): 0%
- % activity solo application (Echinochloa crus-galli [8]; 8 gai/ha, 20 DAT): 0%
- % activity solo application (Echinochloa crus-galli [8]; 16 gai/ha, 20 DAT): 0%
- % activity solo application (Echinochloa crus-galli [8]; 32 gai/ha, 20 DAT): 0%

— patent publication US20260007133A1, “HERBICIDAL COMPOSITION COMPRISING AZINE COMPOUNDS” (BASF SE, priority 2022, published 2026)
